Test results from ChEMBL document CHEMBL1201862, “PubChem BioAssay data set” (2004).
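Following 48 hours of exposure in 96-well plates, responses at five concentrations were used to interpolate endpoints linearly. Here, GI50 denotes the concentration required for 50% inhibition of growth.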 Active and inactive are the calls of the source. Rule as the data show it: active = GI50 up to about 1.1 µM and inactive = higher.

Columns and labels:
Experiment in all cases: inhibition of tumour cell growth, NCI panel, 48 h
XF498 = system: XF498
HOP-18 = system: HOP-18
SNB-78 = system: SNB-78
DLD-1 = system: DLD-1
BT-549 = system: BT-549
M19-MEL = system: M19-MEL
RXF 631 = system: RXF 631
KM-20L2 = system: KM-20L2
DMS-114 = system: DMS-114

Measured: GI50

O=C1C(Br)=C(c2ccccc2)C(c2ccccc2)=C1c1ccccc1
inactive: XF498 1.81 µM | HOP-18 4.9 µM | SNB-78 2.12 µM | DLD-1 1.82 µM | BT-549 3.6 µM | M19-MEL 2.17 µM | RXF 631 6.49 µM | KM-20L2 4.78 µM | DMS-114 1.89 µM

O=[N+]([O-])c1ccccc1C1N2CCCCC2[C@@H]2c3[nH]c4ccccc4c3CCN12 (stereo not given in full)
inactive: XF498 16.9 µM | HOP-18 36.5 µM | SNB-78 15.3 µM | DLD-1 14.2 µM | M19-MEL 6.25 µM | RXF 631 13.2 µM | KM-20L2 12.4 µM | DMS-114 4.34 µM

CCCCOCN/C(N)=N/C#N
inactive: XF498 > 100 µM | HOP-18 > 100 µM | SNB-78 > 100 µM | DLD-1 > 100 µM | RXF 631 > 100 µM | KM-20L2 > 100 µM | DMS-114 > 100 µM

CCc1cccc(C(C)C)c1NC(=O)/C(=N\NC(N)=O)C(C(=O)OC)c1cnc2ccccc2n1 (stereo not given)
inactive: XF498 > 100 µM | HOP-18 19.1 µM | SNB-78 > 100 µM | DLD-1 79.6 µM | M19-MEL 15.9 µM | RXF 631 55.2 µM | KM-20L2 41.6 µM | DMS-114 24.9 µM

O=C(c1ccccc1)c1ccc2cccc(O)c2n1
inactive: XF498 29.2 µM | HOP-18 36.1 µM | SNB-78 46.5 µM | DLD-1 27 µM | M19-MEL 28.8 µM | RXF 631 55.1 µM | KM-20L2 35.6 µM | DMS-114 10.9 µM
